Read-outs that look alike come from different tables or passages of the source.

Assay [1] has as its target T1, μ-opioid receptor (Homo sapiens, UniProt P35372). The assay is described as follows: μ-opioid receptor radioligand dose-displacement binding assay ([3H]-diprenorphine). Set-up: expressed in transfected cells; host or cells: HEK-293 or CHO. On the procedure:
Radioligand dose-displacement binding assays for μ-opioid receptors used 0.3 nM [^3H]-diprenorphine (Perkin Elmer, Shelton, Conn.), with […] membrane protein/well in a final volume of 500 μl binding buffer (10 mM MgCl2, 1 mM EDTA, 5% DMSO, 50 mM HEPES, pH 7.4). Reactions were carried out in the absence or presence of increasing concentrations of unlabeled naloxone. All reactions were conducted in 96-deep well polypropylene plates for 2 hr at room temperature. […] The data were analyzed using the one-site competition curve fitting functions in GraphPad PRISM™ v. 3.0 or higher (San Diego, Calif.), or an in-house function for one-site competition curve-fitting.

The target of assay [2] is T1, μ-opioid receptor. The assay is described as follows: μ-opioid receptor [35S]GTPγS functional assay, HEK-293 or CHO cells. The note with it: for Emax: read-out: GTPγS μ Emax. On the technique in general: GTPγS is a poorly hydrolysed GTP analogue; its binding reports G protein activation.
In assay [3] the target is T2, κ opioid receptor (Homo sapiens, UniProt P41145). Kind of assay: biochemical. In kind it is binding. Set-up: expressed in transfected cells; host or cells: HEK 293 (in-house membrane prep). As to conditions: HEK-293 or CHO cells.
T2 sequence (P41145 whole entry): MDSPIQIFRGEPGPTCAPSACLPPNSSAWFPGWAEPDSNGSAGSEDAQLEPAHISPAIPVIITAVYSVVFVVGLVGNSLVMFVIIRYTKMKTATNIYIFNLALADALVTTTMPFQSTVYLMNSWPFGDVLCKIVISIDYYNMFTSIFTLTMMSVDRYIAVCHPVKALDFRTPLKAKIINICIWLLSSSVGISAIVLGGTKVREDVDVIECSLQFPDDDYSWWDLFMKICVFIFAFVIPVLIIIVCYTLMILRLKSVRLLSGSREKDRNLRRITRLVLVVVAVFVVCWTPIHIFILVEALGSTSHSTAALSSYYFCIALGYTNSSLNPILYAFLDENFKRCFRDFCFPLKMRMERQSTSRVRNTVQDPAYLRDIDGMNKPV
Assay [4] addresses T2, κ opioid receptor. The assay is described as follows: κ-opioid receptor [35S]GTPγS functional assay, HEK-293 or CHO cells. In kind it is biochemical. More on the design: expressed in transfected cells; host or cells: U-2 OS (in-house membranes). The note with it: for Emax: relative to U69,593. The method, then:
Membranes from recombinant HEK-293 cells, CHO or U-2 OS cells expressing the recombinant human κ opioid receptor (κ) were prepared by lysing cells in ice cold hypotonic buffer (2.5 mM MgCl2, 50 mM HEPES, pH 7.4) (10 mL/10 cm dish) followed by homogenization with a tissue grinder/Teflon pestle. Membranes from a cell line naturally expressing kappa opioid receptors can also be used. Membranes were collected by centrifugation at 30,000×g for 15 min at 4° C. and pellets were resuspended in hypotonic buffer to a final concentration of 1-3 mg/mL. Protein concentrations were determined using the BioRad protein assay reagent with bovine serum albumen as standard. Aliquots of κ receptor membranes were stored at −80° C.
Plates were incubated for 30 min at a temperature of about 25° C. with shaking.

Assay [5] addresses T2, κ opioid receptor. Kind of assay: κ-opioid receptor [35S]GTPγS functional assay, U-2 OS cells. In kind it is biochemical. Set-up: expressed in transfected cells; host or cells: U-2 OS (in-house membranes). As to conditions: U-2 OS cells.
Assay [6] concerns the target T1, μ-opioid receptor. The assay is described as follows: μ-opioid receptor [35S]GTPγS functional assay, U-2 OS cells. In kind it is biochemical. Set-up: expressed in transfected cells; host or cells: U-2 OS. The note with it: U-2 OS cells; for EC50: read-out: GTPγS μ EC50; for Emax: relative to DAMGO, read-out: GTPγS μ Emax.
The mark [7] stands for this setting: HEK-293 or CHO cells, read-out: Ki Opioid Receptor μ.
The mark [8] stands for this setting: HEK-293 or CHO cells, read-out: GTPγS κ EC50.
Setting [9] is: HEK-293 or CHO cells, bound in μM, read-out: GTPγS κ EC50.

T1 sequence (P35372 whole entry, species assumed): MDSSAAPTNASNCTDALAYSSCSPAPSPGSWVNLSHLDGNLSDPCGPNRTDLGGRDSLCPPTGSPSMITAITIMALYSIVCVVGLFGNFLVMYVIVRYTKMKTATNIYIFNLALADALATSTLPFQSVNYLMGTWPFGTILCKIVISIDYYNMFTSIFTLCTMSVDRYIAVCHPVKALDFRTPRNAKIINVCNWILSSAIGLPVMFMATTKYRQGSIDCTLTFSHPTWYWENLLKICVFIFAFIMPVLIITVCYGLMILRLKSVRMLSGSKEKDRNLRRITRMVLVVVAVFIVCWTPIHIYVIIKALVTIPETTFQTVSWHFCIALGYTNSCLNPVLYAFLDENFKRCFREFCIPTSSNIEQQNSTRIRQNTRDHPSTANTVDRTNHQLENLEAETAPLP

As usually defined, the Ki is a dissociation constant, usually derived from enzyme kinetics or from competition with a known ligand. For orientation: EC50 means the midpoint of the concentration-response curve. As a reminder, the Emax is the maximal effect, on the per cent scale that the assay sets. For the compound `COc1ccc2c(c1)[C@@]1(C)CCN(CC3CC3)C(C2)C1N(C)C(=O)/C=C/c1ccoc1` (stereo in doubt) [Compound 57, (E)-N-((2R,6R,11S)-3-(cyclopropylmethyl)-8-methoxy-6-methyl-1,2,3,4,5,6-hexahydro-2,6-methanobenzo[d]azocin-11-yl)-3-(furan-3-yl)-N-methylacrylamide], the inhibition constant (Ki) was 236 ± 70.2 nM on μ-opioid receptor [1] (setting [7]) and 0.00461 ± 0.00143 µM on κ opioid receptor [3]. Besides, the EC50 worked out at 315 ± 47.9 nM at μ-opioid receptor [2] and 0.351 ± 0.115 µM at κ opioid receptor [4] (setting [8]). Moreover, the values for the Emax at μ-opioid receptor [2] and at κ opioid receptor [4] (HEK-293 or CHO cells) were 112 ± 7.22% and 85.7 ± 3.93%, respectively.
`COc1ccc2c(c1)C1(C)CCN(C)C(C2)C1=NOCC(=O)O` (stereo not drawn) [Compound 1, 2-(((8-methoxy-3,6-dimethyl-1,2,3,4,5,6-hexahydro-2,6-methanobenzo[d]azocin-11-ylidene)amino)oxy)acetic Acid]: the values for the Ki at μ-opioid receptor [1] and on κ opioid receptor [3] were over 20000 nM and 12.1 µM, respectively.
As for `COc1ccc2c(c1)C1(C)CCN(C)C(C2)C1=NO` (stereo not drawn) [Compound 2, 8-methoxy-3,6-dimethyl-1,2,3,4,5,6-hexahydro-2,6-methanobenzo[d]azocin-11-one Oxime], the Ki at μ-opioid receptor [1] was over 20000 nM; at κ opioid receptor [3] it was 2.58 ± 0.122 µM.
As for `COc1ccc2c(c1)[C@@]1(C)CCN(C)C(C2)[C@@H]1OCC(N)=O` [Compound 3, 2-(((6R,11R)-8-methoxy-3,6-dimethyl-1,2,3,4,5,6-hexahydro-2,6-methanobenzo[d]azocin-11-yl)oxy)acetamide], the Ki at μ-opioid receptor [1] is over 20000 nM; on κ opioid receptor [3] (bound in μM), over 20 µM.
Consider `COc1ccc2c(c1)[C@@]1(C)CCN(C)C(C2)[C@H]1OCC(N)=O` [Compound 4, 2-(((6R,11S)-8-methoxy-3,6-dimethyl-1,2,3,4,5,6-hexahydro-2,6-methanobenzo[d]azocin-11-yl)oxy)acetamide], for which the Ki on μ-opioid receptor [1] was over 20000 nM; on κ opioid receptor [3] (bound in μM), over 20 µM.
On to `CCN(CC)CCON=C1C2Cc3ccc(OC)cc3C1(C)CCN2C` (stereo not drawn) [Compound 5, 8-methoxy-3,6-dimethyl-1,2,3,4,5,6-hexahydro-2,6-methanobenzo[d]azocin-11-one O-(2-(diethylamino)ethyl)oxime], for which the Ki was over 20000 nM at μ-opioid receptor [1] and 10.7 µM on κ opioid receptor [3].
For `CCC=C1C2Cc3ccc(OC)cc3C1(C)CCN2C` (stereo not drawn) [Compound 6, 8-methoxy-3,6-dimethyl-11-propylidene-1,2,3,4,5,6-hexahydro-2,6-methanobenzo[d]azocine], the Ki on μ-opioid receptor [1] is over 20000 nM; on κ opioid receptor [3], 3.16 ± 1.24 µM.
For the compound `CN1CC[C@]2(C)c3cc(O)ccc3C[C@@H]1[C@H]2Nc1ccc(CCS(N)(=O)=O)cc1` [Compound 50, 2-(4-(((2R,6R,11S)-8-hydroxy-3,6-dimethyl-1,2,3,4,5,6-hexahydro-2,6-methanobenzo[d]azocin-11-yl)amino)phenyl)ethanesulfonamide], the EC50 at κ opioid receptor [5] (bound in μM, read-out: GTPγS κ EC50) is over 20 µM; on μ-opioid receptor [6], 0.042 ± 0.0109 µM; on μ-opioid receptor [2], 189 ± 13.7 nM; on κ opioid receptor [4] (setting [9]) it was over 20 µM. The Emax on κ opioid receptor [5] (relative to U69,593, read-out: GTPγS κ Emax) worked out at 9.78 ± 2.97%; at μ-opioid receptor [6], 86.5 ± 4.14%; on μ-opioid receptor [2], 93.8 ± 2.17%. The Ki at κ opioid receptor [3] is 0.0583 ± 0.0101 µM.
Regarding `COc1ccc2c(c1)[C@@]1(C)CCN(C)C(C2)C1N1CCCC(C(=O)O)C1` (stereo partly drawn) [Compound 74, 1-((6R)-8-methoxy-3,6-dimethyl-1,2,3,4,5,6-hexahydro-2,6-methanobenzo[d]azocin-11-yl)piperidine-3-carboxylic acid], the Ki at μ-opioid receptor [1] came out at 230 ± 43.8 nM; on κ opioid receptor [3], 0.0241 ± 0.00593 µM. Also, the EC50 on μ-opioid receptor [2] was 639 ± 147 nM; at κ opioid receptor [4] it was 0.637 ± 0.0651 µM. For the same compound, the Emax turned out to be 31.7 ± 0.67% on μ-opioid receptor [2] and 53 ± 2.31% at κ opioid receptor [4] (HEK-293 or CHO cells).
For the compound `CN(C(=O)Nc1ccc(C#N)cc1)[C@H]1C2Cc3ccc(O)cc3[C@@]1(C)CCN2CC1CC1` [Compound 80, 3-(4-cyanophenyl)-1-((6R,11R)-3-(cyclopropylmethyl)-8-hydroxy-6-methyl-1,2,3,4,5,6-hexahydro-2,6-methanobenzo[d]azocin-11-yl)-1-methylurea], the EC50 is 0.0002 ± 1.3e-05 µM on μ-opioid receptor [6], 216 ± 38.7 nM on μ-opioid receptor [2] and over 20 µM on κ opioid receptor [4] (setting [9]). The Emax is 113 ± 3.53% on μ-opioid receptor [6] and 92.4 ± 3.23% on μ-opioid receptor [2]. This compound returned a Ki at κ opioid receptor [3] of 0.00119 ± 0.00032 µM.
With `CN(C(=O)/C=C/c1ccoc1)[C@H]1C2Cc3ccc(O)cc3[C@@]1(C)CCN2CC1CC1` [Compound 83, (E)-N-((6R,11R)-3-(cyclopropylmethyl)-8-hydroxy-6-methyl-1,2,3,4,5,6-hexahydro-2,6-methanobenzo[d]azocin-11-yl)-3-(furan-3-yl)-N-methylacrylamide], the results for the Ki at μ-opioid receptor [1] (setting [7]) and at κ opioid receptor [3] were 1.78 ± 0.38 nM and 0.00015 ± 2e-05 µM, respectively. Moreover, the EC50 came out at 10.6 ± 1.18 nM at μ-opioid receptor [2] and 0.00267 ± 0.00084 µM on κ opioid receptor [4] (setting [8]). Besides, the figures for the Emax on μ-opioid receptor [2] and on κ opioid receptor [4] (HEK-293 or CHO cells) were 92.7 ± 5.21% and 77.7 ± 1.76%, respectively.
Regarding `CN(C(=O)Nc1ccc(C#N)cc1)[C@H]1C2Cc3ccc(O)cc3[C@@]1(C)CCN2CC1CCC1` [Compound 88, 3-(4-cyanophenyl)-1-((6R,11R)-3-(cyclobutylmethyl)-8-hydroxy-6-methyl-1,2,3,4,5,6-hexahydro-2,6-methanobenzo[d]azocin-11-yl)-1-methylurea], the EC50 on μ-opioid receptor [6] was found to be 0.00167 ± 0.00016 µM; at μ-opioid receptor [2], 7.58 ± 1.06 nM; on κ opioid receptor [4] (setting [8]), 0.0247 ± 0.00535 µM. Further, the results for the Emax at μ-opioid receptor [6], on μ-opioid receptor [2] and on κ opioid receptor [4] (HEK-293 or CHO cells) were 85.7 ± 2.33%, 74.7 ± 1.86% and 18.5 ± 2.84%, respectively. This compound also came in with a Ki on κ opioid receptor [3] of 0.00474 ± 0.00155 µM.
Take `CN(C(=O)Nc1ccc(C#N)cc1)[C@H]1C2Cc3ccc(O)cc3[C@@]1(C)CCN2Cc1cccc(F)c1F` [Compound 89, 3-(4-cyanophenyl)-1-((6R,11R)-3-(2,3-difluorobenzyl)-8-hydroxy-6-methyl-1,2,3,4,5,6-hexahydro-2,6-methanobenzo[d]azocin-11-yl)-1-methylurea]: the values for the 50% effective concentration (EC50) on μ-opioid receptor [6] (bound in μM), on μ-opioid receptor [2] and at κ opioid receptor [4] (setting [9]) were over 20 µM, over 20000 nM and over 20 µM, respectively. Besides, at μ-opioid receptor [6], the Emax came out at 1.17 ± 1.01%. This compound displayed a Ki on κ opioid receptor [3] of 0.0092 ± 0.0009 µM.
Regarding `CN1CC[C@]2(C)c3cc(O)ccc3CC1[C@@H]2N1Cc2ccccc2NC1=O` [Compound 91], the EC50 at μ-opioid receptor [6] was 0.378 ± 0.0619 µM; on μ-opioid receptor [2], 409 ± 19.5 nM; at κ opioid receptor [4] (setting [8]) it was 2.81 ± 0.129 µM. Further, the Emax on μ-opioid receptor [6] came to 71.3 ± 3.53%; at μ-opioid receptor [2], 89.7 ± 5.9%; on κ opioid receptor [4] (HEK-293 or CHO cells), 34.7 ± 5.93%. This compound gave a Ki at κ opioid receptor [3] of 0.174 ± 0.0257 µM.

Values taken from patent publication US10138207B2, “Benzomorphan analogs and the use thereof” (priority 2012, dated 2018).
